Measured values from patent US20240140952A1, “INHIBITORS AND DEGRADERS OF JANUS KINASE 2” (H. LEE MOFFITT CANCER CENTER AND RESEARCH INSTITUTE, INC., priority 2021, published 2024).
Read-outs that look alike come from different tables or passages of the source.

What was measured:
[1] = biological target: JAK2 (Homo sapiens (Human), UniProt O60674); experiment: Radiometric assay of enzymatic JAK2 activity by Reaction Biology Corp.; type: biochemical
[2] = biological target: T1, JAK2 KD (Homo sapiens (Human), UniProt O60674); experiment: Transient expression of JAK2 KD in Expi293F cells, immunoblot densitometry; type: cell-based
Protocol: The construct was expressed using a CMV promoter and contained a Hiss N-terminal affinity tag followed by a TEV cleavage site. Expi293F cells (Invitrogen) were grown, maintained, and treated in shaking culture at 37° C. with 8% CO2 in Expi293 medium (Invitrogen). Recombinant JAK2 was expressed in Expi293F cells using Transporter 5 transfection reagent as described by the manufacturer (PolySciences). One hour after adding the plasmid:transfection complex, varying concentrations of JAK2 inhibitor or transcription enhancer were added. The transfection proceeded for 24 hours before harvest.
Previously, JAK2 KD has been predominantly purified from insect cells; but this process takes several weeks to generate and amplify the baculovirus to produce large enough quantities of purified protein.

[3] = test system: UKE-1 cells; experiment: UKE-1 cell viability assay (CellTiter Blue); details: UKE1, 72 h, read-out: UKE-1 cell growth inhibition IC50
Protocol: Suspension cells were seeded at 20,000 cells per well. […] Cell viability data were analyzed using GraphPad Prism6.

[4] = biological target: SRC (Homo sapiens (Human), UniProt P12931); details: selectivity; cited from earlier work
[5] = biological target: T1, JAK2 KD; experiment: Differential scanning fluorimetry (DSF) binding studies with purified JAK2 KD
Description: To assess the suitability of purified JAK2 KD for SAR studies for drug development campaigns, three series of JAK2 inhibitors (FIG. 2A-C) were subjected to binding studies by differential scanning fluorimetry (DSF).

[6] = read-out: Biochemical inhibition IC50
[7] = radiometric assay, ± SD from two data sets, read-out: Biochemical inhibition IC50

T1 sequence (O60674 840-1132): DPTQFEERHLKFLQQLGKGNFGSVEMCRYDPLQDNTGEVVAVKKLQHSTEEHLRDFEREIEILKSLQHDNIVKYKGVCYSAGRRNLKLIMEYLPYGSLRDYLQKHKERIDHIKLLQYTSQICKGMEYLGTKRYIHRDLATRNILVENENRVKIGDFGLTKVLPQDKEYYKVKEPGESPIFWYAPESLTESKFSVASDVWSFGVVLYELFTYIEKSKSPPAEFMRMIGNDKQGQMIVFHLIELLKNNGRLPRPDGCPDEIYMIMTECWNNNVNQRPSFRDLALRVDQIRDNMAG
JAK2, sequence (O60674 whole entry): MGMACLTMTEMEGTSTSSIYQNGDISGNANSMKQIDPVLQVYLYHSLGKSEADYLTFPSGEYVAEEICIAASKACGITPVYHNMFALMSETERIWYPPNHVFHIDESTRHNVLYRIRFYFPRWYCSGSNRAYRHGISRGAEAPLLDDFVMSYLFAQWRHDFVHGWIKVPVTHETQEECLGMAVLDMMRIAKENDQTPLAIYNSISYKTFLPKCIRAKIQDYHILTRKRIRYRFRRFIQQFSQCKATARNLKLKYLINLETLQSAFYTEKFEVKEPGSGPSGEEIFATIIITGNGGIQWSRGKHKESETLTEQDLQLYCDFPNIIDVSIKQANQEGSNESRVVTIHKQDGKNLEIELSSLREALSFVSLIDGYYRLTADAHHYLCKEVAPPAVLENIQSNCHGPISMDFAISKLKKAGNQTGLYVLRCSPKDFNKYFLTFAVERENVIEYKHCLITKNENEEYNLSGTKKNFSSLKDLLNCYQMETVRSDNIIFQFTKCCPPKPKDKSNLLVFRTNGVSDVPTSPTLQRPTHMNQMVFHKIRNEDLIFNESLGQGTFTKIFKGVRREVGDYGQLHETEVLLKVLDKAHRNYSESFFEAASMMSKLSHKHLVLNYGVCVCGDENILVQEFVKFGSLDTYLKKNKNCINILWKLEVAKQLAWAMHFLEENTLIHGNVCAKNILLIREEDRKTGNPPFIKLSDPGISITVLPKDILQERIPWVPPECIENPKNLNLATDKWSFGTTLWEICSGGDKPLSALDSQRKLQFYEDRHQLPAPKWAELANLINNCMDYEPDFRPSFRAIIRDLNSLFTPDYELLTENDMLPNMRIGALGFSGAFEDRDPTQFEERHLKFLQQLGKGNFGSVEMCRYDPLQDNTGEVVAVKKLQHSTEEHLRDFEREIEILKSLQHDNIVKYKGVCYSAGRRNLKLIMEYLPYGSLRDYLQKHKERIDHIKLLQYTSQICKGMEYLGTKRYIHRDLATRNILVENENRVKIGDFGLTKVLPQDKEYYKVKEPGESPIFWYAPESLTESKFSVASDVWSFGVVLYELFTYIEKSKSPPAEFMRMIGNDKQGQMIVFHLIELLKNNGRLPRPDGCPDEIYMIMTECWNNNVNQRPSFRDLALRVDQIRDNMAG
SRC, sequence (P12931 whole entry, species assumed): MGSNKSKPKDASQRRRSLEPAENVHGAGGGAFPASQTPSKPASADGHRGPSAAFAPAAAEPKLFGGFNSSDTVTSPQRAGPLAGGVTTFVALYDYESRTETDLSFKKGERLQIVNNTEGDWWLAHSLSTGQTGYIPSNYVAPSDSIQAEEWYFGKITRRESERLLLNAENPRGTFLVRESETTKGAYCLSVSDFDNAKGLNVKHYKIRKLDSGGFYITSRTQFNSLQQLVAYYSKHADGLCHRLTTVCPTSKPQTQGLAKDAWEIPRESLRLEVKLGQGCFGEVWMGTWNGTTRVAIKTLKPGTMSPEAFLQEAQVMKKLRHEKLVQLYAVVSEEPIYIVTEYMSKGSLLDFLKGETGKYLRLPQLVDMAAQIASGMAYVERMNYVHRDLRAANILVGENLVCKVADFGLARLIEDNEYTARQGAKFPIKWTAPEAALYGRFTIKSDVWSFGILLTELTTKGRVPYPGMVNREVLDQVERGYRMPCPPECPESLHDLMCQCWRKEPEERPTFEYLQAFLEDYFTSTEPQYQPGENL

| SMILES | IC50 [1, 6] [nM] | IC50 [3] [nM] | further results |
| --- | --- | --- | --- |
| N#CC[C@H](C1CCCC1)n1cc(-c2nc(Nc3ccc(C4CCNCC4)cc3)nc3[nH]ccc23)cn1 [(R)-1, (R)-3-Cyclopentyl-3-(4-(2-((4-(piperidin-4-yl)phenyl)amino)-7H-pyrrolo[2,3-d]pyrimidin-4-yl)-1H-pyrazol-1-yl)propanenitrile] | 0.15 ± 0.03 | – | IC50 [1]: < 0.15 nM |
| CCCC(CCC)C(=O)O [valproic acid] | – | – | JAK2 KD expression increase over ruxolitinib alone ([2]; HDAC inhibitor during expression alongside ruxolitinib): four-fold |
| C=CCCn1cc(-c2nc(Nc3ccc(C4CCNCC4)cc3)nc3[nH]ccc23)cn1 [Compound 3, 4-(1-(But-3-en-1-yl)-1H-pyrazol-4-yl)-N-(4-(piperidin-4-yl)phenyl)-7H-pyrrolo[2,3-d]pyrimidin-2-amine] | – | 620 ± 40 | IC50 [1, 7]: 0.26 ± 0.04 nM |
| N#CC[C@@H](C1CCCC1)n1cc(-c2nc(Nc3ccc(C4CCNCC4)cc3)nc3[nH]ccc23)cn1 [(S)-1, (S)-3-Cyclopentyl-3-(4-(2-((4-(piperidin-4-yl)phenyl)amino)-7H-pyrrolo[2,3-d]pyrimidin-4-yl)-1H-pyrazol-1-yl)propanenitrile] | 0.099 ± 0.02 | – | – |
| N#CC[C@H](C1CCCC1)n1cc(-c2ncnc3[nH]ccc23)cn1 [Ruxolitinib, reference compound] | – | – | Inhibitory activity for JAK2 over SRC [4]: three orders of magnitudes higher |
| Cc1cnc(Nc2ccc(C3CCN(C)CC3)c(F)c2)nc1Nc1ccc2c(c1)N(S(=O)(=O)C(C)(C)C)CC2 [Compound 7, N^4-(1-(tert-Butylsulfonyl)indolin-6-yl)-N^2-(3-fluoro-4-(1-methylpiperidin-4-yl)phenyl)-5-methylpyrimidine-2,4-diamine] | 3.6 ± 1.1 | 210 ± 20 | – |
| N#CCCn1cc(-c2nc(Nc3ccc(C4CCNCC4)cc3)nc3[nH]ccc23)cn1 [Compound 2, 3-(4-(2-((4-(Piperidin-4-yl)phenyl)amino)-7H-pyrrolo[2,3-d]pyrimidin-4-yl)-1H-pyrazol-1-yl)propanenitrile] | 0.13 ± 0.048 | 4500 ± 5900 | – |
| CCCC(=O)O [butyric acid] | – | – | JAK2 KD expression increase over ruxolitinib alone [2]: four-fold |
| Cc1cnc(Nc2ccc(OCCN3CCCC3)cc2)nc1Nc1cccc(S(=O)(=O)NC(C)(C)C)c1 [Fedratinib, reference compound] | – | 660 ± 60 | – |
| Cc1cnc(Nc2ccc(C3CCN(C)CC3)c(F)c2)nc1Nc1ccc(F)c(NS(=O)(=O)C(C)(C)C)c1 [Compound 4, N-(2-Fluoro-5-((2-((3-fluoro-4-(1-methylpiperidin-4-yl)phenyl)amino)-5-methylpyrimidin-4-yl)amino)phenyl)-2-methylpropane-2-sulfonamide] | – | – | IC50 [1, 7]: 6.5 ± 3.5 nM |
| N#CCC(C1CCCC1)n1cc(-c2nc(Nc3ccc(C4CCNCC4)cc3)nc3[nH]ccc23)cn1 (racemic) [(rac)-1] | – | – | Binding potential ΔTm [5]: 11.8 ± 0.05 °C |
| Cc1cnc(Nc2cc(F)c(C3CCN(C)CC3)c(F)c2)nc1Nc1ccc(F)c(NS(=O)(=O)C(C)(C)C)c1 [Compound 5, N-(5-((2-((3,5-Difluoro-4-(1-methylpiperidin-4-yl)phenyl)amino)-5-methylpyrimidin-4-yl)amino)-2-fluorophenyl)-2-methylpropane-2-sulfonamide] | – | 150 ± 10 | IC50 [1, 7]: 8.2 ± 5.7 nM |
